Source: ChEMBL document CHEMBL4680362, “Androgen Receptor Protein Degradation in the Treatment of Castration-Resistant Prostate Cancer” (ACS Med Chem Lett, 2021)

How the values were obtained:
[1] = target: T1, von Hippel-Lindau disease tumor suppressor/Androgen receptor (Homo sapiens) (UniProt P10275+P40337); test: Protac activity at VHL/AR in human LNCaP cells assessed as degradation of AR at 0.1 uM measured after 6 hrs by Western blot analysis relative to control; assay type: cell-based
[2] = target: T1, von Hippel-Lindau disease tumor suppressor/Androgen receptor (Homo sapiens); test: Protac activity at VHL/AR in human LNCaP cells assessed as degradation of AR at 0.01 uM measured after 6 hrs by Western blot analysis relative to control; assay type: cell-based

T1 sequence (P10275 whole entry, looked up): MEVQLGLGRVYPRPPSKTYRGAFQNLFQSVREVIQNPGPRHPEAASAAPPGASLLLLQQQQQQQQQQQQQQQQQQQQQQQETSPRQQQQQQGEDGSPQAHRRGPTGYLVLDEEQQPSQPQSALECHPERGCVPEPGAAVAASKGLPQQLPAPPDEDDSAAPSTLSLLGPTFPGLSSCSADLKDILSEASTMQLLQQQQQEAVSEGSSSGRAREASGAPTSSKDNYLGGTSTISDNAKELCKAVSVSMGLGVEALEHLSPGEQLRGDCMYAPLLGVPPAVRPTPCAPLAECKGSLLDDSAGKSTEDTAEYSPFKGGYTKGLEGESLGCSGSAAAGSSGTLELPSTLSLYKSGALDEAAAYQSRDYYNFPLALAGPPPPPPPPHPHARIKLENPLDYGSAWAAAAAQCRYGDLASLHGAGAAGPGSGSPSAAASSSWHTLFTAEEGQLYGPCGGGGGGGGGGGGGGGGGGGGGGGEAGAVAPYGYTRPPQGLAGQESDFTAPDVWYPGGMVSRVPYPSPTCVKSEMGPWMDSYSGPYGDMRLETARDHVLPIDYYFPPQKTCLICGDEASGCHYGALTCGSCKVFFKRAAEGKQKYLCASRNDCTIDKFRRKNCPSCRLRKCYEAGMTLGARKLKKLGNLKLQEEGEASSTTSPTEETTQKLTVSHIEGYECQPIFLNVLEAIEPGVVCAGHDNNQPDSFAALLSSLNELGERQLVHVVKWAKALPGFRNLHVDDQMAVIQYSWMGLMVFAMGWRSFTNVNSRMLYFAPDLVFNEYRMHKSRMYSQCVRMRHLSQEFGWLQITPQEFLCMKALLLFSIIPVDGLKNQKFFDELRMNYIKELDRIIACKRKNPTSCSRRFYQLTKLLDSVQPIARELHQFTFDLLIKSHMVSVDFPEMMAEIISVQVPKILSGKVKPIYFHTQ
T1 sequence (P40337 whole entry, looked up): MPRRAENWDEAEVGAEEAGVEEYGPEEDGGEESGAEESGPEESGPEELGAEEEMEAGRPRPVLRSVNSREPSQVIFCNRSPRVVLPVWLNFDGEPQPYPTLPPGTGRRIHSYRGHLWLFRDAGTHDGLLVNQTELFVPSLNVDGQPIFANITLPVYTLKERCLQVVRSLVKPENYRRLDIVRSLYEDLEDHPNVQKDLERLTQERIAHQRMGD

Row | Activity [1] [%] | Activity [2] [%] | Compound
1 | 65 |  | Cc1cc([C@H](C(=O)N2C[C@H](O)C[C@H]2C(=O)N[C@@H](CC(=O)N2CCC(N3CCC(C#Cc4ccc(Cc5c(C)nn(-c6ccc(C#N)c(Cl)c6)c5C)cc4)CC3)CC2)c2ccc(-c3scnc3C)cc2)C(C)C)on1
2 | 2 |  | CC1(C)[C@H](NC(=O)c2ccc(C#CC3CCN(C4CCN(c5cccc6c5C(=O)N(C5CCC(=O)NC5=O)C6=O)CC4)CC3)cc2)C(C)(C)[C@H]1Oc1ccc(C#N)c(Cl)c1 (some centres undefined)
3 | 98 | 76 | Cc1cc([C@H](C(=O)N2C[C@H](O)C[C@H]2C(=O)N[C@@H](CC(=O)N2CCC(N3CCC(C#Cc4ccc(C(=O)N[C@H]5C(C)(C)[C@H](Oc6ccc(C#N)c(Cl)c6)C5(C)C)cc4)CC3)CC2)c2ccc(-c3scnc3C)cc2)C(C)C)on1
4 | 77 | 39 | CC(=O)N[C@H](C(=O)N1C[C@H](O)C[C@H]1C(=O)N[C@@H](CC(=O)N1CCC(N2CCC(C#Cc3ccc(C(=O)N[C@H]4C(C)(C)[C@H](Oc5ccc(C#N)c(Cl)c5)C4(C)C)cc3)CC2)CC1)c1ccc(-c2scnc2C)cc1)C(C)(C)C
5 | 80 | 38 | Cc1cc([C@H](C(=O)N2C[C@H](O)C[C@H]2C(=O)N[C@@H](CC(=O)NN2CCC(N3CCC(C#Cc4ccc(N5C(=S)N(c6cnc(C#N)c(C(F)(F)F)c6)C(=O)C56CCC6)cc4)CC3)CC2)c2ccc(-c3scnc3C)cc2)C(C)C)on1
6 | 99 | 76 | Cc1ncsc1-c1ccc([C@H](CC(=O)N2CCC(N3CCC(C#Cc4ccc(C(=O)N[C@H]5C(C)(C)[C@H](Oc6ccc(C#N)c(Cl)c6)C5(C)C)cc4)CC3)CC2)NC(=O)[C@@H]2C[C@@H](O)CN2C(=O)[C@@H](NC(=O)C2(C#N)CC2)C(C)(C)C)cc1
7 | 81 | 20 | Cc1cc([C@H](C(=O)N2C[C@H](O)C[C@H]2C(=O)N[C@@H](CC(=O)NN2CCC(N3CCC(C#Cc4ccc(N5C(=S)N(c6ccc(C#N)c(C(F)(F)F)c6)C(=O)C5(C)C)cc4)CC3)CC2)c2ccc(-c3scnc3C)cc2)C(C)C)on1
8 | 99 | 89 | Cc1ncsc1-c1ccc([C@H](CC(=O)N2CCC(N3CCC(C#Cc4ccc(C(=O)N[C@H]5C(C)(C)[C@H](Oc6ccc(C#N)c(Cl)c6)C5(C)C)cc4)CC3)CC2)NC(=O)[C@@H]2C[C@@H](O)CN2C(=O)[C@@H](NC(=O)C2(F)CC2)C(C)(C)C)cc1
